According to US10301294B2, “Compounds for the treatment of tuberculosis” (priority 2013, dated 2019):
Like-named read-outs stand apart in the source and are kept apart here.

Assays:
Type in all cases: cell-based
[1] = system: carbon-starved M. tuberculosis H37Rv; test: Non-replicating IC90 determination by luciferase (carbon-starved cells); conditions: Mycobacterium tuberculosis, H37RV, luciferase; for IC90: non-replicating carbon-starved Mtb, three independent experiments in triplicate, read-out: TB Growth Inhibition Activity, IC90 Non-replicating_luciferase; for IC99: 120 h, None = inhibition did not reach 99%, read-out: Against carbon starved non-replicating Mtb IC99 (uM, luciferase)
[2] = Cytotoxicity against Hek 293; conditions: human, HEK293 cells, 26.0 uM highest concentration measured
[3] = Cytotoxicity against HeLa; conditions: human, HeLa cells, 26.0 uM highest concentration measured
[4] = Cytotoxicity against HepG2; conditions: human, HepG2 cells, 26.0 uM highest concentration measured
[5] = system: replicating M. tuberculosis H37Rv; test: microbe, parasite or virus in culture; conditions: Mycobacterium tuberculosis, H37RV
[6] = three independent experiments in triplicate, read-out: TB Growth Inhibition Activity, IC90 Replicating_logarithmic (converted)
[7] = None = inhibition did not reach 90%, read-out: Against Replicating Mtb IC90 (uM, GFP)

Compound | IC90 [1] [µM] | IC50 [2] [µM] | IC50 [3] [µM] | IC50 [4] [µM] | IC90 [5, 6] [µM] | IC99 [1] [µM] | IC90 [5, 7] [µM]
c1ccc(CSc2ncc(-c3ccccc3)o2)cc1 | 62 | > 26 | > 26 | > 26 | – | – | –
c1ccc(COc2nnc(-c3ccccc3)o2)cc1 | 8 | > 26 | > 26 | > 26 | – | – | –
c1ccc(CNc2nnc(-c3ccccc3)o2)cc1 | 4 | > 26 | > 26 | > 26 | – | – | –
O=C(Cc1ccccc1)c1nnc(-c2ccccc2)o1 | 16 | > 26 | > 26 | > 26 | – | – | –
Cc1nnc(SCc2ccccc2)o1 | 31 | > 26 | > 26 | > 26 | – | – | –
c1ccc(CSc2nnc(-c3ccc(-c4ccccc4)cc3)o2)cc1 | – | > 26 | > 26 | > 26 | – | – | –
Cc1ccccc1-c1nnc(SCc2ccccc2)o1 | 16 | > 26 | > 26 | > 26 | – | – | –
FC(F)(F)Oc1ccccc1-c1nnc(SCc2ccccc2)o1 | 62 | > 26 | > 26 | > 26 | – | – | –
Cc1cccc(-c2nnc(SCc3ccccc3)o2)c1 | 8 | > 26 | > 26 | > 26 | – | – | –
Clc1cccc(-c2nnc(SCc3ccccc3)o2)c1 | 8 | > 26 | > 26 | > 26 | – | – | –
FC(F)(F)c1cccc(-c2nnc(SCc3ccccc3)o2)c1 | 31 | > 26 | > 26 | > 26 | – | – | –
CS(=O)(=O)c1cccc(-c2nnc(SCc3ccccc3)o2)c1 | 125 | > 26 | > 26 | > 26 | – | – | –
N#Cc1cccc(-c2nnc(SCc3ccccc3)o2)c1 | 8 | > 26 | > 26 | > 26 | – | – | –
COc1ccc(-c2nnc(SCc3ccccc3)o2)cc1 | 31 | > 26 | > 26 | > 26 | – | – | –
FC(F)(F)Oc1ccc(-c2nnc(SCc3ccccc3)o2)cc1 | 2 | > 26 | > 26 | > 26 | – | – | –
FC(F)(F)c1ccc(-c2nnc(SCc3ccccc3)o2)cc1 | 1 | > 26 | > 26 | > 26 | – | – | –
N#Cc1ccc(-c2nnc(SCc3ccccc3)o2)cc1 | 8 | > 26 | > 26 | > 26 | – | – | –
CS(=O)(=O)c1ccc(-c2nnc(SCc3ccccc3)o2)cc1 | – | > 26 | > 26 | > 26 | – | – | –
c1ccc(CSc2nnc(-c3ccncc3)o2)cc1 | 31 | > 26 | > 26 | > 26 | – | – | –
c1ccc(CSc2nnc(-c3cnco3)o2)cc1 | 8 | > 26 | > 26 | > 26 | – | – | –
c1ccc(CSc2nnc(-c3cc4ccccc4o3)o2)cc1 | 2 | > 26 | > 26 | > 26 | – | – | –
COc1ccccc1CSc1nnc(-c2ccccc2)o1 | 2 | > 26 | > 26 | > 26 | – | – | –
Fc1ccccc1CSc1nnc(-c2ccccc2)o1 | 1 | > 26 | > 26 | > 26 | 250 | – | –
Clc1ccccc1CSc1nnc(-c2ccccc2)o1 | 2 | > 26 | > 26 | > 26 | 250 | – | –
FC(F)(F)c1ccccc1CSc1nnc(-c2ccccc2)o1 | 1 | > 26 | > 26 | > 26 | – | – | –

Compound | IC90 [1] [µM] | IC50 [2] [µM] | IC50 [3] [µM] | IC50 [4] [µM] | IC90 [5, 6] [µM] | IC99 [1] [µM] | IC90 [5, 7] [µM]
N#Cc1ccccc1CSc1nnc(-c2ccccc2)o1 | 4 | > 26 | > 26 | > 26 | – | – | –
CS(=O)(=O)c1ccccc1CSc1nnc(-c2ccccc2)o1 | – | > 26 | > 26 | > 26 | – | – | –
COc1cccc(CSc2nnc(-c3ccccc3)o2)c1 | 1 | > 26 | > 26 | > 26 | – | – | –
Clc1cccc(CSc2nnc(-c3ccccc3)o2)c1 | 4 | > 26 | > 26 | > 26 | – | – | –
FC(F)(F)Oc1cccc(CSc2nnc(-c3ccccc3)o2)c1 | 2 | > 26 | > 26 | > 26 | – | – | –
N#Cc1cccc(CSc2nnc(-c3ccccc3)o2)c1 | 8 | > 26 | > 26 | > 26 | – | – | –
Cc1ccc(CSc2nnc(-c3ccccc3)o2)cc1 | 1 | > 26 | > 26 | > 26 | – | – | –
COc1ccc(CSc2nnc(-c3ccccc3)o2)cc1 | 0.25 | > 26 | > 26 | > 26 | – | – | –
Clc1ccc(CSc2nnc(-c3ccccc3)o2)cc1 | 1 | > 26 | > 26 | > 26 | – | – | –
FC(F)(F)c1ccc(CSc2nnc(-c3ccccc3)o2)cc1 | 1 | > 26 | > 26 | > 26 | – | – | –
FC(F)(F)Oc1ccc(CSc2nnc(-c3ccccc3)o2)cc1 | 1 | > 26 | > 26 | > 26 | – | – | –
N#Cc1ccc(CSc2nnc(-c3ccccc3)o2)cc1 | 2 | > 26 | > 26 | > 26 | – | – | –
CS(=O)(=O)c1ccc(CSc2nnc(-c3ccccc3)o2)cc1 | 31 | > 26 | > 26 | > 26 | – | – | –
c1ccc(-c2ccc(CSc3nnc(-c4ccccc4)o3)cc2)cc1 | 8 | > 26 | > 26 | > 26 | – | – | –
FC(F)(F)CNCCSc1nnc(-c2ccccc2)o1 | 250 | > 26 | > 26 | > 26 | – | – | –
c1ccc(-c2nnc(SCCN3CCOCC3)o2)cc1 | 250 | > 26 | > 26 | > 26 | – | – | –
CC1(O)CN(CCSc2nnc(-c3ccccc3)o2)C1 | 125 | > 26 | > 26 | > 26 | – | – | –
c1ccc(-c2nnc(SCCN3CCCC3)o2)cc1 | 16 | > 26 | > 26 | > 26 | – | – | –
Fc1ccc(CSc2nnc(-c3ccccc3)o2)cc1 [drawing 136] | 1 | > 26 | > 26 | > 26 | – | – | –
COc1cccc(-c2nnc(SCc3ccccn3)o2)c1 [drawing 227] | – | – | – | – | – | 16 | 62
COc1ccc(CSc2nnc(-c3ccc(Cl)cc3)o2)nc1 [drawing 228] | – | – | – | – | – | 8 | 31
COC(=O)CCCOc1ccc(CSc2nnc(-c3ccc(Cl)cc3)o2)nc1 [drawing 233] | – | – | – | – | – | 16 | 31
[N-]=[N+]=NCCOCCNC(=O)CCCOc1ccc(CSc2nnc(-c3ccc(Cl)cc3)o2)nc1 [drawing 237] | – | – | – | – | – | 62 | 62
[N-]=[N+]=NCCOCCNC(=O)CCCOc1ccc(C[S+]([O-])c2nnc(-c3ccc(Cl)cc3)o2)nc1 (centres unmarked) [drawing 240] | – | – | – | – | – | 16 | 250
